Experimental data: US12391679B2, “Benzamide-substituted bicyclic imidazo- and pyrazolo-fused -pyridine, -pyrimide, and -pyridazine compounds for treatment of inflammatory diseases” (ONCO3R Therapeutics BV, priority 2019, dated 2025)
pEC50, pIC50: −log10 of the molar value.

What was measured:
[1] = test system: LPS-induced TNFα in monocytes; assay: Monocytes assay: LPS-triggered TNFα (ELISA); format: cell-based, human; settings: Homo sapiens, Monocyte, LPS-triggered TNFα inhibition
Method in brief: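 CD14+ monocytes were magnetically isolated from human buffy-coat PBMCs, preincubated with compound 1 h at 37 °C (0.2% DMSO), then stimulated with LPS at 200 ng/mL for 4 h. Supernatant TNFα was measured by luminescent sandwich ELISA; percentage inhibition was calculated against controls for each concentration.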

SIK3 = target: T1, SIK3 (Homo sapiens, UniProt Q9Y2K2); assay: ADP-Glo kinase assay, SIK3; format: biochemical
T1 construct: purchased SignalChem S12-11G-100
T1 sequence (Q9Y2K2 59-365 limits assumed): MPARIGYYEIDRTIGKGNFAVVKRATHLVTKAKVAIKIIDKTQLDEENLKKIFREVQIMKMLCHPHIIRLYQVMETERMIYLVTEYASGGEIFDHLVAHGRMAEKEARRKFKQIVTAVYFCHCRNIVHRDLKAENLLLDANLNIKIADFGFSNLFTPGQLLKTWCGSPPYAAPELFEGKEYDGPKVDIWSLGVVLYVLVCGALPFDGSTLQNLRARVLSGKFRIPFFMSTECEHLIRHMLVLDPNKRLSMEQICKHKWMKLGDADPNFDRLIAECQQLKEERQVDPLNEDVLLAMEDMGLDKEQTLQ
Method in brief: (§1)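 Luminescent ADP-formation read-out: enzyme–substrate mix + ATP, 120 min RT; ATP depletion 40 min RT; ADP→ATP conversion with luciferase/luciferin 30 min RT. Controls: 1% DMSO (negative), 10 μM staurosporine final (positive).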

[2] = test system: LPS triggered IL-10 secretion in monocytes; assay: Monocytes assay: LPS-triggered IL-10 (ELISA); format: cell-based, human; settings: Homo sapiens, Monocyte, LPS-triggered IL-10 induction, median maximal fold change vs LPS only, read-out: IL-10 FCmax median
Method in brief: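 CD14+ monocytes bead-isolated from human PBMCs, pretreated with compound 1 h at 37 °C (0.2% DMSO), then stimulated with LPS 200 ng/mL for 4 h. Supernatant IL-10 measured by chemiluminescent sandwich ELISA; fold change versus LPS only per concentration, reported as maximal fold change (FCmax).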

SIK1 = target: T2, SIK1 (Homo sapiens, UniProt P57059); assay: ADP-Glo kinase assay, SIK1; format: biochemical
T2 construct: purchased Carna Biosciences 02-131
T2 sequence (P57059 whole entry): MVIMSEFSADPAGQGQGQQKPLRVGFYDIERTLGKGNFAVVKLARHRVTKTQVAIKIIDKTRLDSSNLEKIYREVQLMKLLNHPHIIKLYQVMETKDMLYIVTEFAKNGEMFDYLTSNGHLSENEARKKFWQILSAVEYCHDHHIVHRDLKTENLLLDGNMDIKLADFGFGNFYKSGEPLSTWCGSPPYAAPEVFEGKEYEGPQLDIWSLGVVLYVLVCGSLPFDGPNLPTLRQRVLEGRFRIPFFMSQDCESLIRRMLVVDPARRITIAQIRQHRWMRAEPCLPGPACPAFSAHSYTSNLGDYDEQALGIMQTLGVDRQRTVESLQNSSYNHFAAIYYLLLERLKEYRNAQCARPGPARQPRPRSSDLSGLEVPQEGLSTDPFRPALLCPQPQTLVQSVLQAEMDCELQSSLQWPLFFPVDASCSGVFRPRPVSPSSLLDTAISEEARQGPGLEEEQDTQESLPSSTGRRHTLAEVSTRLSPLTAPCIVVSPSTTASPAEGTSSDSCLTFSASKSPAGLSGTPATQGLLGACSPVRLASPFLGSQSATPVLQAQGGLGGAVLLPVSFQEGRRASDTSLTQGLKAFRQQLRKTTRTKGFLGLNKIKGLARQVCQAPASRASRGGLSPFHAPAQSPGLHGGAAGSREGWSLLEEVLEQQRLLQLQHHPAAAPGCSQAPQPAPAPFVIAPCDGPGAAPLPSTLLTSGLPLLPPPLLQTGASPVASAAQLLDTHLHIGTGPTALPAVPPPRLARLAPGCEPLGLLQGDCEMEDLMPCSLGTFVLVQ
Method in brief: as §1

Row | pEC50 [1] | pIC50 (SIK3) | pIC50 (SIK1) | SMILES | maximal fold induction [2]
1 | 6.00 to 7.00 | 7.00 to 8.00 | < 6.30 | COc1cc(-c2cnc3cc(C(C)(O)C(F)(F)F)ccn23)cc(OC(F)F)c1C(=O)NC1CC1 (stereo not shown) [Cpd 129, N-cyclopropyl-2-(difluoromethoxy)-6-methoxy-4-[7-(2,2,2-trifluoro-1-hydroxy-1-methyl-ethyl)imidazo[1,2-a]pyridin-3-yl]benzamide] | 1.5 to 4.5
2 | 6.00 to 7.00 | 8.00 to 11.00 | < 6.30 | COc1cc(-c2cnc3cc(C(F)(F)CO)ccn23)cc(OC(F)F)c1C(=O)NC1CC1 [Cpd 136, N-cyclopropyl-4-[7-(1,1-difluoro-2-hydroxy-ethyl)imidazo[1,2-a]pyridin-3-yl]-2-(difluoromethoxy)-6-methoxy-benzamide] | 1.5 to 4.5
3 | 6.00 to 7.00 | 7.00 to 8.00 | < 6.30 | CCC(C)(O)c1ccn2c(-c3cc(OC)c(C(=O)NC4CC4)c(OC(F)F)c3)cnc2c1 (stereo not shown) [Cpd 137, N-cyclopropyl-2-(difluoromethoxy)-4-[7-(1-hydroxy-1-methyl-propyl)imidazo[1,2-a]pyridin-3-yl]-6-methoxy-benzamide] | < 1.5
4 | 6.00 to 7.00 | 8.00 to 11.00 | < 6.30 | COc1cc(-c2cnc3cc(C(C)(C)CO)ccn23)cc(OC(F)F)c1C(=O)NC1CC1 [Cpd 150, N-cyclopropyl-2-(difluoromethoxy)-4-[7-(2-hydroxy-1,1-dimethyl-ethyl)imidazo[1,2-a]pyridin-3-yl]-6-methoxy-benzamide] | < 1.5
5 | 6.00 to 7.00 | 7.00 to 8.00 | < 6.30 | COc1cc(-c2cnc3cc(C(C)(C)C(C)O)ccn23)cc(OC(F)F)c1C(=O)NC1CC1 (stereo not shown) [Cpd 172, N-cyclopropyl-2-(difluoromethoxy)-4-[7-(2-hydroxy-1,1-dimethyl-propyl)imidazo[1,2-a]pyridin-3-yl]-6-methoxy-benzamide] | < 1.5

Second part, the compound before the results:

Row | SMILES | pEC50 [1] | pIC50 (SIK3) | pIC50 (SIK1) | maximal fold induction [2]
6 | COc1cc(-c2cnc3cc(C4(C#N)COC4)ccn23)cc(OC(F)F)c1C(=O)N[C@@H]1C[C@@H]1F [Cpd 130, 4-[7-(3-cyanooxetan-3-yl)imidazo[1,2-a]pyridin-3-yl]-2-(difluoromethoxy)-N-[(1R,2S)-2-fluorocyclopropyl]-6-methoxy-benzamide] | 6.00 to 7.00 | 8.00 to 11.00 | < 6.30 | 1.5 to 4.5
7 | COc1cc(-c2cnc3cc(C4CCC4)c(F)cn23)cc(OC(F)F)c1C(=O)NC1CC1 [Cpd 168, 4-(7-cyclobutyl-6-fluoro-imidazo[1,2-a]pyridin-3-yl)-N-cyclopropyl-2-(difluoromethoxy)-6-methoxy-benzamide] | 6.00 to 7.00 | 8.00 to 11.00 | 6.30 to 7.00 | 1.5 to 4.5
8 | COc1cc(-c2cnc3cc(C4(O)CCOCC4)ccn23)cc(OC(F)F)c1C(=O)NC1CC1 [Cpd 170, N-cyclopropyl-2-(difluoromethoxy)-4-[7-(4-hydroxytetrahydropyran-4-yl)imidazo[1,2-a]pyridin-3-yl]-6-methoxy-benzamide] | 5.30 to 6.00 | 7.00 to 8.00 | < 6.30 | 1.5 to 4.5
9 | COc1cc(-c2cnc3cc(C4CCCN4C)ccn23)cc(OC(F)F)c1C(=O)NC1CC1 (stereo not shown) [Cpd 171, N-cyclopropyl-2-(difluoromethoxy)-6-methoxy-4-[7-(1-methylpyrrolidin-2-yl)imidazo[1,2-a]pyridin-3-yl]benzamide] | 5.30 to 6.00 | 7.00 to 8.00 | < 6.30 | 1.5 to 4.5
10 | COc1cc(-c2cnc3cc(C4(O)CCC4)ccn23)cc(OC(F)F)c1C(=O)NC1CC1 [Cpd 173, N-cyclopropyl-2-(difluoromethoxy)-4-[7-(1-hydroxycyclobutyl)imidazo[1,2-a]pyridin-3-yl]-6-methoxy-benzamide] | 6.00 to 7.00 | 7.00 to 8.00 | < 6.30 | 1.5 to 4.5
